Test results published in publication PMC9697080 (International Journal of Molecular Sciences, 2022).
Values joined by “and” are separate entries in the source; they are usually repeats but may differ in a detail not shown here. Identical values can stand only once.

Tests used:
HIV-1 protease [1] = target: T1, HIV-1 protease (Human immunodeficiency virus type 1 group M subtype B, UniProt P04585); test: biochemical; assay type: biochemical; conditions: for IC50: IC50 (HIV-1 protease inhibition)
[2] = tested on: VSV-G-pseudotyped HIV-1 (pHIV-1NL4-3); test: microbe, parasite or virus in culture; assay type: cell-based; conditions: for inhibition at 10 µM: Human immunodeficiency virus 1, SUP-T1, read-out: Inhibition (%) (10 μM), effects on late-stage HIV-1; for EC50: Human immunodeficiency virus 1, read-out: Mean EC50 HIV-1NL4-3
[3] = Cytotoxicity assay (CCK8 Assay Kit); conditions: human
[4] = tested on: DRV-resistant HIV-1 variant pHIV-1DRV^RS (V32I, L33F, I54M, I84V); test: microbe, parasite or virus in culture; assay type: cell-based; conditions: for EC50: Human immunodeficiency virus 1, read-out: Mean EC50 HIVDRV^Rs
HIV-1 protease [5] = target: T1, HIV-1 protease; test: biochemical; assay type: binding
HEK293T cells = test: Cytotoxicity assay (CCK8 Assay Kit); conditions: HEK293T (293T) cells, CCK8, 24 h
[6] = tested on: influenza virus strain H1N1; design: method as in PMID 26077494; conditions: read-out: IC50 against influenza H1N1; cited from earlier work
[7] = tested on: influenza virus strain H5N1; conditions: read-out: IC50 against influenza H5N1; cited from earlier work
[8] = tested on: influenza virus strain H3N2; design: method as in PMID 26077494; conditions: read-out: IC50 against influenza H3N2; cited from earlier work
[9] = HEK293T cells, CC50, HEK293T (293T) cells, CCK8, 24 h

Row | Structure (SMILES) | IC50 (HIV-1 protease [1]) | inhibition at 10 µM [2] [%] | CC50 at 24 h [3, 9] [nM] | also measured
1 | CC(C)CN(C[C@@H](O)[C@H](Cc1ccccc1)NC(=O)c1ccccc1O)S(=O)(=O)c1ccc(N)cc1 [16a] | 0.54 ± 0.11 nM | 100 | > 100000 | Effectivity in single-round infection assay compared with DRV [2]: equipotent with DRV
2 | COc1cc(C(=O)N[C@@H](Cc2ccccc2)[C@H](O)CN(CC(C)C)S(=O)(=O)c2ccc(N)cc2)cc(OC)c1O [16h] | 0.04 ± 0.003 nM | 99 ± 3 | > 100000 | 
3 | CSc1ccc(S(=O)(=O)N(CC(C)C)C[C@@H](O)[C@H](Cc2ccccc2)NC(=O)c2ccc(O)c(O)c2)cc1 [17d] | 0.0076 ± 0.0029 nM | 100 | > 100000 | Effectivity in single-round infection assay compared with DRV [2]: equipotent with DRV
4 | CC(C)CN(C[C@@H](O)[C@H](Cc1ccccc1)NC(=O)c1ccc(Cl)cc1O)S(=O)(=O)c1ccc(N)cc1 [16b] | 0.31 ± 0.08 nM | 98 ± 2 | > 100000 | 
5 | COc1ccc(S(=O)(=O)N(CC(C)C)C[C@@H](O)[C@H](Cc2ccccc2)NC(=O)c2ccc(Cl)cc2O)cc1 [15b] | 7.82 ± 0.93 nM | 96 ± 3 | > 20000 | EC50 [2]: 1400 ± 23 nM; Fold Resistance, EC50 (mutant)/EC50 (WT) [4]: 1.31 fold; EC50 [4]: 1840 ± 39.6 nM; Kd (HIV-1 protease [5]): 7100 nM; CC50 (HEK293T cells): 33900 nM
6 | CSc1ccc(S(=O)(=O)N(CC(C)C)C[C@@H](O)[C@H](Cc2ccccc2)NC(=O)c2ccc(Cl)cc2O)cc1 [17b] | 2.79 ± 0.44 nM |  | > 100000 | 
7 | COc1ccc(S(=O)(=O)N(CC(C)C)C[C@@H](O)[C@H](Cc2ccccc2)NC(=O)c2cc(OC)c(OC)cc2O)cc1 [15i] | 1.41 ± 0.43 nM |  | > 100000 | 
8 | COc1ccc(S(=O)(=O)N(CC(C)C)C[C@@H](O)[C@H](Cc2ccccc2)NC(=O)c2cc(OC)c(O)c(OC)c2)cc1 [15h] | 0.08 ± 0.03 nM | 99 ± 2 | 84700 | 
9 | CC(C)CN(C[C@@H](O)[C@H](Cc1ccccc1)NC(=O)c1cc(O)cc(O)c1)S(=O)(=O)c1ccc(N)cc1 [16f] | 0.27 ± 0.03 nM | 99 ± 2 | > 100000 | 
10 | CSc1ccc(S(=O)(=O)N(CC(C)C)C[C@@H](O)[C@H](Cc2ccccc2)NC(=O)c2ccccc2O)cc1 [17a] | 3.97 ± 0.41 nM |  | > 100000 | 
11 | COc1cc(O)c(C(=O)N[C@@H](Cc2ccccc2)[C@H](O)CN(CC(C)C)S(=O)(=O)c2ccc(N)cc2)cc1OC [16i] | 0.6 ± 0.18 nM |  | > 100000 | 
12 | CC(C)CN(C[C@@H](O)[C@H](Cc1ccccc1)NC(=O)c1cc(O)c(O)c(O)c1)S(=O)(=O)c1ccc(N)cc1 [16g] | 68 nM and 68.2 nM | 55 ± 6 | 57600 | 
13 | COc1ccc(S(=O)(=O)N(CC(C)C)C[C@@H](O)[C@H](Cc2ccccc2)NC(=O)c2cc(O)cc(O)c2)cc1 [15f] | 0.0024 ± 0.0004 nM | 100 |  | Enhancement of enzymatic inhibitory activity compared with DRV (HIV-1 protease [1]): over 200 fold; Effectivity in single-round infection assay compared with DRV [2]: equipotent with DRV; EC50 [2]: 28.9 ± 9.21 nM; Fold Resistance, EC50 (mutant)/EC50 (WT) [4]: 1.57 fold; EC50 [4]: 45.5 ± 12.1 nM
14 | COc1cc(C(=O)N[C@@H](Cc2ccccc2)[C@H](O)CN(CC(C)C)S(=O)(=O)c2ccc(SC)cc2)cc(OC)c1O [17h] | 0.32 ± 0.03 nM |  | > 100000 | 
15 | COc1ccc(C(=O)N[C@@H](Cc2ccccc2)[C@H](O)CN(CC(C)C)S(=O)(=O)c2ccc(SC)cc2)c(O)c1 [17c] | 8.21 ± 1.2 nM |  | > 100000 | 
16 | COc1ccc(C(=O)N[C@@H](Cc2ccccc2)[C@H](O)CN(CC(C)C)S(=O)(=O)c2ccc(N)cc2)c(O)c1 [16c] | 4.14 ± 1.38 nM | 90 ± 6 | > 100000 | 
17 | COc1cc(O)c(C(=O)N[C@@H](Cc2ccccc2)[C@H](O)CN(CC(C)C)S(=O)(=O)c2ccc(SC)cc2)cc1OC [17i] | 4.71 ± 0.18 nM |  | > 100000 | 
18 | COc1ccc(S(=O)(=O)N(CC(C)C)C[C@@H](O)[C@H](Cc2ccccc2)NC(=O)c2ccccc2O)cc1 [15a] | 3.34 ± 0.28 nM | 98 ± 2 | > 100000 | 
19 | CC(C)CN(C[C@@H](O)[C@H](Cc1ccccc1)NC(=O)O[C@H]1CO[C@H]2OCC[C@H]21)S(=O)(=O)c1ccc(N)cc1 [DRV, Darunavir, reference compound] |  | 100 |  | EC50 [2]: 1.8 ± 0.73 nM; EC50 [4]: 136.8 ± 1.12 nM; CC50 at 24 h [3]: > 100000 nM
20 | CSc1ccc(S(=O)(=O)N(CC(C)C)C[C@@H](O)[C@H](Cc2ccccc2)NC(=O)c2cc(O)cc(O)c2)cc1 [17f] | 0.0066 ± 0.0021 nM | 100 | > 100000 | Effectivity in single-round infection assay compared with DRV [2]: equipotent with DRV
21 | COc1ccc(S(=O)(=O)N(CC(C)C)C[C@@H](O)[C@H](Cc2ccccc2)NC(=O)c2ccc(O)c(O)c2)cc1 [15d] | 0.0059 ± 0.0007 nM | 100 | > 20000 | Effectivity in single-round infection assay compared with DRV [2]: equipotent with DRV; EC50 [2]: 15.4 ± 2.17 nM; EC50 [4]: 402 ± 47.3 nM; CC50 (HEK293T cells): 38200 nM
22 | O=c1oc2cc(/C=C/c3ccc(O)c(O)c3)oc(=O)c2c2cc(O)c(O)cc12 [Phelligridin D] |  |  |  | IC50 [6]: 8800 nM; IC50 [7]: 10900 nM; IC50 [8]: 10300 nM
23 | CC(C)CN(C[C@@H](O)[C@H](Cc1ccccc1)NC(=O)c1ccc(O)c(O)c1)S(=O)(=O)c1ccc(N)cc1 [16d] | 1.63 ± 0.33 nM | 100 | > 100000 | Effectivity in single-round infection assay compared with DRV [2]: equipotent with DRV
24 | CSc1ccc(S(=O)(=O)N(CC(C)C)C[C@@H](O)[C@H](Cc2ccccc2)NC(=O)c2ccc(O)cc2O)cc1 [17e] | 0.4 ± 0.08 nM |  | > 100000 | 
25 | CC(C)CN(C[C@@H](O)[C@H](Cc1ccccc1)NC(=O)c1ccc(O)cc1O)S(=O)(=O)c1ccc(N)cc1 [16e] | 0.43 ± 0.08 nM | 75 ± 8 | > 100000 | 
26 | COc1ccc(S(=O)(=O)N(CC(C)C)C[C@@H](O)[C@H](Cc2ccccc2)NC(=O)c2ccc(OC)cc2O)cc1 [15c] | 4.68 ± 0.74 nM | 92 ± 5 | > 100000 | 
27 | COc1ccc(S(=O)(=O)N(CC(C)C)C[C@@H](O)[C@H](Cc2ccccc2)NC(=O)c2cc(O)c(O)c(O)c2)cc1 [15g] | 1.13 ± 0.23 nM | 99 ± 1 | > 100000 | 
28 | COc1ccc(S(=O)(=O)N(CC(C)C)C[C@@H](O)[C@H](Cc2ccccc2)NC(=O)c2ccc(O)cc2O)cc1 [15e] | 0.3 ± 0.08 nM | 75 ± 6 | 78800 | 
